Tested on: Klebsiella pneumoniae
Assay: Photochemical inactivation of K. pneumoniae in plasma or platelets in PAS with amotosalen and UVA LED illumination
Assay type: cell-based
Settings: 150 μM amotosalen nominal, triplicate

Cc1oc2c(C)c3oc(=O)cc(C)c3cc2c1COCCN [S-59, 3-(2-aminoethoxymethyl)-2,5,9-trimethylfuro[3,2-g]chromen-7-one]
Log Inactivation (plasma, INTERCEPT plasma set, 6.4 J/cm^2, UVA LEDs 346-349 nm): 6.3 ± 0.3 log | Log Inactivation (plasma, INTERCEPT plasma set, 6.4 J/cm^2, UVA LEDs 346-349 nm, listed as amotosalen): 6.3±0.3 log | Log Inactivation (platelets/PAS, LV set, 3.9 J/cm^2, UVA LEDs 346-349 nm): 7.2 ± 0.2 log | Log Inactivation (platelets/PAS, LV set, 3.9 J/cm^2, UVA LEDs 346-349 nm, listed as amotosalen): 7.2±0.2 log

From patent publication US12558442B2, “Biological fluid treatment systems” (priority 2019, dated 2026)
